The EC50 is the concentration giving half of the maximal effect. In general, CC50 refers to the concentration that lowers cell viability or growth by half. A lower CC50 goes with greater toxicity to the cells.

Series [1] has as its system HIV-1 IIIB. As to the kind of experiment: Anti-HIV assay, syncytium formation and tetrazolium colorimetric assay. Particulars: range over IIIb, 2D, AZT resistant, UC781 resistant and clade C HIV-1. The format is cell-based. As for the experimental part:
(§1) T-tropic HIV-1 laboratory strains IIIb, 2D as well as AZT-resistant and UC781-resistant strains were utilized in this study, along with clinical isolate (clade C). HIV-1 clinical isolate, resistant to AZT is a generous gift from Dr. Mark A. Wainberg, McGill AIDS Center, McGill University, Montreal, Canada.
(§2) MT-2 or MT-4 cells were cultured in RPMI 1640 supplemented with 10% fetal calf serum (FCS), 0.2 mM glutamine and penicilline/streptomycin/nistatin mixture. The cells were propagated in 96-well tissue culture plates at the density of 5×10^4 cells per well. Peripheral mononuclear blood cells (PMBC) were separated from whole blood samples by centrifugation in Ficoll gradient for 10 min at 400 g. PMBC were cultured in the same medium in 24-well tissue culture plates at the density of about 10^6 cells per well.

In series [2] the test system is HIV-1 clinical isolate (clade C). Described as above. The series is classed as cell-based. As for the experimental part:
as §1, §2

In series [3] the test system is HIV-1 clinical isolate, resistant to AZT. Described as above. The settings on record: average of two independent experiments in duplicates; read-out: EC50 HIV-1 AZTres. The series is classed as cell-based. The protocol: as §1, §2
Series [4] concerns MT-2 cells as well as PMBC lines ETH and IS. Particulars: ratio CC50/EC50. As for the experimental part: (§3) The cells were infected by incubation with different titers of the HIV-1 strains for 2 hrs at 37° C. in the presence or absence of the AAC of the invention. Then the cells were washed from the virus by centrifugation at 400 g and the supernatants were discarded. The cells were resuspended in culture medium, supplemented with different concentrations of the test compounds. The cells were allowed to proliferate for 5 days, the number of viable cells was quantified by a tetrazolium-based colorimetric method (CellTiter 96® AQueous One solution Cell Proliferation Assay, Promega). Anti-HIV activity in P4-CCR5 MAGI cells was done as follows: cells (1×10^5/ml) were infected with 10 ng/ml of p24 antigen of HIV-1 Ba-L in the presence of varying concentrations of the test compound. 24 hours post infection, cells were washed twice with PBS and resuspended in the medium containing the appropriate drug concentration. Five days after infection the cells were washed with PBS and evaluated for β-galactosidase activity.

For series [5], the system named is HIV-1 2D. The series is classed as cell-based. The protocol:
as §1, §2

Series [6] has as its system MT-4 cells. As to the kind of experiment: Cytotoxicity in MT-4 cells, MTT. The series is classed as cell-based, human. The settings on record: viability of MT-4 cells, MTT assay. As for the experimental part:
as §3
A general note: Formazan colour is commonly taken as a measure of viable cells.

Setting [7] is: average of two independent experiments in duplicates.

“Triargininamido-gentamicin conjugate [R3G]”: the concentration for a half-maximal effect (EC50) is 6 to 10 µM in series [1], 6 µM in series [2] (setting [7]), 8 µM in series [3] and 10 µM in series [5] (setting [7]). Further, the “inhibition of virus growth” value in series [2] (MT-2 cells infected in presence of 20 μM R3G or 10 μM NeoR, then 3 days without AAC) is 30%. For the same compound, in series [4], the TI50 is reported as 50-85. The “antiviral effect in the presence of AZT” value in series [5] (HIV-1 2D and clade C) is given as “additive”.

In series [6], `N=C(N)NCCCC(N)C(=O)NCC1OC(OC2C(NC(=O)C(N)CCCNC(=N)N)CC(NC(=O)C(N)CCCNC(=N)N)C(OC3OC(CO)C(O)C(NC(=O)C(N)CCCNC(=N)N)C3O)C2O)C(O)C(O)C1O` (centres unmarked) [R4K, Tetraargininamido-kanamycin A conjugate] came in with a CC50 of more than 1130 µM.

The record behind these values is patent US6642365B1, “Anti-(retro)viral conjugates of saccharides and acetamidino or guanidino compounds” (Yeda Research and Development Co. Ltd., priority 2001, dated 2003).
